Measured values from PMC9743094, “Synthesis and Evaluation of Polymyxins Bearing Reductively Labile Disulfide-Linked Lipids” (Journal of Medicinal Chemistry, 2022).

How the values were obtained:
A. baumanii (ATCC 17961) = assay type: cell-based; settings: broth microdilution, CAMHB
Protocol: (§1) Minimum inhibitory concentrations (MICs) on relevant Gram-negative bacteria were determined by broth microdilution, in accordance with CLSI guidelines. Indicated bacteria were taken from glycerol stocks and incubated overnight on blood agar at 37 °C. Well-isolated colonies were taken, suspended in TSB (5 mL), and grown to an OD600 of 0.5. Compounds to be tested were dissolved in DMSO (6.4 mg/mL), diluted in cation-adjusted Mueller–Hinton Broth (CAMHB) (12.5 and 20 μg/mL Mg^2+ and Ca^2+, respectively), and diluted serially on polypropylene microtiter plates. To the diluted compounds (50 μL per well) was added 50 μL of relevant bacterial suspension, to yield a final concentration of 10^6 CFU/mL. Plates were covered by adhesive gas-permeable membranes and incubated at 37 °C. MIC was read out as the lowest concentration that inhibited visual bacterial growth. Shown values are consistent results from at least duplicate experiments.
(§2) Table S3. MIC values [µg/mL] and relative toxicity values for disulfide containing polymyxin derivative 18b and
(§3) non-disulfide containing analogue 45. […]

P. aeruginosa (PAO1) = assay type: cell-based; settings: broth microdilution, CAMHB
Protocol: as §1, §2, §3

[1] = tested on: differentiated conditionally immortalized PTECs (ciPTECs, OAT-1); assay: ciPTEC toxicity assay (PrestoBlue); assay type: cell-based, human; settings: 37 °C
In short: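 ciPTEC (OAT-1) cells were differentiated 24 h at 33 °C then 6 days at 37 °C before 24 h exposure at 37 °C to serially diluted compounds in serum-free medium. Viability by 10% PrestoBlue fluorescence (530/590 nm), relative to untreated cells. TC50 from nonlinear regression with bottom fixed at 0; triplicates.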

E. coli (ATCC 25922) = assay type: cell-based; settings: broth microdilution, CLSI, CAMHB, 10^6 CFU/mL, 37 °C, visual growth; triplicate experiments
In short: (§4)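 Broth microdilution per CLSI in cation-adjusted Mueller–Hinton Broth (12.5 μg/mL Mg^2+, 20 μg/mL Ca^2+), inoculum 10^6 CFU/mL final, 37 °C. MIC taken as lowest concentration with no visible growth, consistent across at least duplicate experiments.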

[2] = tested on: P. aeruginosa (ATCC 27853); assay type: cell-based; settings: broth microdilution, CLSI, CAMHB, 10^6 CFU/mL, 37 °C, visual growth; triplicate experiments
In short: as §4

[3] = tested on: K. pneumoniae (ATCC 13883); assay type: cell-based; settings: broth microdilution, CLSI, CAMHB, 10^6 CFU/mL, 37 °C, visual growth; triplicate experiments
In short: as §4

[4] = tested on: A. baumannii (ATCC 19606); assay type: cell-based; settings: broth microdilution, CLSI, CAMHB, 10^6 CFU/mL, 37 °C, visual growth; triplicate experiments
In short: as §4

A. baumannii BAA-747 = assay type: cell-based; settings: broth microdilution, CAMHB
Protocol: as §1
(§5) Bacterial strains used for MIC assays and extended MIC assessment
(§6) Strains: The following strains were obtained from BEI Resources, NIAID, NIH: E. Coli M0072, strain
(§7) Table S2. […] Values are given in μg/mL.
(§8) Species Strain ID Resistance Polymyxin B 18b 23a 24a

A. baumannii NRZ-00687 = assay type: cell-based; settings: resistance indicator: NDM-2; broth microdilution, CAMHB
Protocol: as §1, §5, §6, §7, §8

K. pneumoniae RC0045 = assay type: cell-based; settings: resistance indicator: OXA-48; broth microdilution, CAMHB
Protocol: as §1, §5, §6, §7, §8

E. coli 1793 = assay type: cell-based; settings: resistance indicator: NDM-1; broth microdilution, CAMHB
Protocol: as §1, §5, §6, §7, §8

K. pneumoniae ATCC 29665 = assay type: cell-based; settings: broth microdilution, CAMHB
Protocol: as §1, §5, §6, §7, §8

P. aeruginosa 2018-007 = assay type: cell-based; settings: resistance indicator: IMP-7; broth microdilution, CAMHB
Protocol: as §1, §5, §6, §7, §8

P. aeruginosa 2251 = assay type: cell-based; settings: resistance indicator: VIM-2; broth microdilution, CAMHB
Protocol: as §1, §5, §6, §7, §8

E. coli M0072 = assay type: cell-based; settings: resistance indicator: Multiple; broth microdilution, CAMHB
Protocol: as §1, §5, §6, §7, §8

E. coli JS136 = assay type: cell-based; settings: resistance indicator: OXA-48; broth microdilution, CAMHB
Protocol: as §1, §5, §6, §7, §8

P. aeruginosa ATCC 10145 = assay type: cell-based; settings: broth microdilution, CAMHB
Protocol: as §1, §5, §6, §7, §8

P. aeruginosa M120 = assay type: cell-based; settings: resistance indicator: OXA-50, blaPAO; broth microdilution, CAMHB
Protocol: as §1, §5, §6, §7, §8

A. baumannii RUH-134 = assay type: cell-based; settings: resistance indicator: Multiple; broth microdilution, CAMHB
Protocol: as §1, §5, §6, §7, §8

K. pneumoniae KP1.53 = assay type: cell-based; settings: resistance indicator: MDR; broth microdilution, CAMHB
Protocol: as §1, §5, §6, §7, §8

[5] = tested on: Red blood cells from defibrinated sheep blood; assay: Hemolysis assay; assay type: cell-based; settings: 128 μg/mL, 1 h, 37 °C, absorbance 415 nm, normalized to 0.1% Triton-X100, triplicates
Protocol: Red blood cells from defibrinated sheep blood (Thermo Fisher Scientific) were centrifuged (400g for 15 min at 4 °C) and washed with PBS containing 0.002% Tween20 four times. The red blood cells were normalized to obtain an absorbance value between 2.5 and 3.0 at 415 nm to stay in the linear range of the assay with maximum sensitivity. A serial dilution of the compounds (128–4 μg/mL, 75 μL) was prepared in a 96-well plate. Each plate contained a positive control (0.1% Triton-X final concentration, 75 μL) and a negative control (buffer, 75 μL). The normalized blood cells (75 μL) were added, and the plates were incubated at 37 °C for 1 h while shaking at 500 rpm. After incubation, the plates were centrifuged (800g for 5 min at RT) and 25 μL of the supernatant was transferred to a second plate, containing 100 μL of PBS in each well. Absorbance was read-out at 415 nm. Values were corrected for background (negative control) and transformed to a percentage relative to the positive control. Results shown (Supporting Information Figure S2) are based on triplicate data.
Stability assessment in presence of glutathione
Figure S1. Compound stability upon incubation with low (5 μM) or high (5 mM) glutathione (GSH) concentration.
Compounds were incubated in PBS with the indicated concentration glutathione for 24 hours. Indicated data points are
based upon integration of HPLC UV data.
Figure S2. […]

- MIC A. baumanii (ATCC 17961) (A. baumanii (ATCC 17961)): 0.25 mg/L
- MIC P. aeruginosa (PAO1) (P. aeruginosa (PAO1)): 0.5 mg/L
- MIC E. coli (ATCC 25922) (E. coli (ATCC 25922)): 1 mg/L
- MIC P. aeruginosa (ATCC 27853) [2]: 1 mg/L
- MIC K. pneumoniae (ATCC 13883) [3]: 0.25 mg/L
- MIC A. baumannii (ATCC 19606) [4]: 0.25 mg/L
- MIC A. baumannii BAA-747 (A. baumannii BAA-747): 0.25 mg/L
- MIC A. baumannii NRZ-00687 (A. baumannii NRZ-00687): 0.25 mg/L
- MIC K. pneumoniae RC0045 (K. pneumoniae RC0045): 0.25 mg/L
- MIC E. coli 1793 (E. coli 1793): 0.063 mg/L
- MIC K. pneumoniae ATCC 29665 (K. pneumoniae ATCC 29665): 0.25 mg/L
- MIC P. aeruginosa 2018-007 (P. aeruginosa 2018-007): 2 mg/L
- MIC P. aeruginosa 2251 (P. aeruginosa 2251): 1 mg/L
- MIC E. coli M0072 (E. coli M0072): 0.125 mg/L
- MIC E. coli JS136 (E. coli JS136): 0.125 mg/L
- MIC P. aeruginosa ATCC 10145 (P. aeruginosa ATCC 10145): 1 mg/L
- MIC P. aeruginosa M120 (P. aeruginosa M120): 1 mg/L
- MIC A. baumannii RUH-134 (A. baumannii RUH-134): 0.25 mg/L
- MIC K. pneumoniae KP1.53 (K. pneumoniae KP1.53): 0.5 mg/L
Substance: Polymyxin B [reference compound]
- ciPTEC Toxicity Index (relative to polymyxin B) ([1]; TC50 expressed relative to polymyxin B, 24 h incubation, serum-free medium, PrestoBlue fluorescence, nonlinear regression, triplicate): 1.0
- TC50, Day 1 ([1]; cell batch/analysis Day 1, ciPTEC, 24 h, PrestoBlue, non-linear regression with bottom constraint at 0, triplicates): 80 µM
- TC50, Day 2 ([1]; cell batch/analysis Day 2, ciPTEC, 24 h, PrestoBlue, non-linear regression with bottom constraint at 0, triplicates): 41 µM
- percent hemolysis [5]: below 5%
